Each compound was assayed on B16 melanoma cells (assay: Caspase-3 activity assay (EnzChek Caspase-3 Assay Kit), caspase-3 induction in tumor cells). Conditions: not given.
Type: cell-based, mouse
Excerpt: The EnzChek® Caspase-3 Assay Kit was used to detect apoptosis by assaying for increases in caspase-3 activities. The basis for the assay was rhodamine 110 bis-(N-CBZ-L-aspartyl-L-glutamyl-L-valyl-L-aspartic acid amide) (Z-DEVD-R110). This substrate is a bisamide derivative of rhodamine 110 (R110) containing DEVD peptides covalently linked to each of R110's amino groups, thereby suppressing the dye's visible absorption and its fluorescence. Upon enzymatic cleavage, the nonfluorescent bisamide substrate is converted in a two-step process first to a fluorescent monoamide and then to an even more fluorescent R110.
At least 1×10^6 cells of the lysate were used for each reaction. B16 cells were treated with compounds to induce apoptosis. A negative control was prepared by incubating cells in the absence of compounds. The cells were incubated with compounds for 24 hrs and washed in PBS. Each cell sample or control was resuspended in 50 μL of the 1×cell lysis buffer. Cells were lysed by incubating on ice for 30 minutes, and the lysed cells were centrifuged to pellet the cellular debris. 50 μL of the supernatant was transferred from each sample to individual microplate wells. 50 μL of the 1× cell lysis buffer was used as a no-enzyme control to determine the background fluorescence of the substrate. 50 μL of the 2×substrate working solution was added to each sample and control. The microplate was covered, and the samples were incubated at room temperature for approximately 30 minutes. The fluorescence was measured by a fluorescence microplate reader (excitation/emission ˜496/520 nm) using excitation and emission filters.
The ability of this small molecule inhibitor to inhibit intracellular Sb9 was then evaluated. As a marker for cell penetration, the induction of caspase-3 activity in B16 melanoma cells as a surrogate marker for increased GrB activity was measured.
The induction of caspase-3 activity in B16 melanoma cells as a surrogate marker for increased GrB activity was also measured for other small molecules (compounds of Formulas (V) and (VI) as described herein).
Further: test concentration or dose not given here.

Row | SMILES | Ratio of caspase-3 activity to Formula (III)
1 | O=C(c1ccc2oc(-c3cccc(F)c3)nc2c1)N1CCOc2ccccc2C1 [4-{[2-(3-fluorophenyl)-1,3-benzoxazol-5-yl]carbonyl}-2,3,4,5-tetrahydro-1,4-benzoxazepine] | 0.1627
2 | COc1cccc(-c2nc3ccc(C(=O)N4CCOC(C(N)=O)C4)cc3o2)c1 (centres unmarked) [4-{[2-(3-methoxyphenyl)-1,3-benzoxazol-6-yl]carbonyl}morpholine-2-carboxamide] | 0.1611
3 | O=C(c1ccc2oc(-c3ccc(C(F)(F)F)cc3)nc2c1)N1CCOCC1 [5-(4-morpholinylcarbonyl)-2-[4-(trifluoromethyl)phenyl]-1,3-benzoxazole] | 0.1317
4 | CCN1CCN(C(=O)c2ccc3oc(-c4cccc(F)c4)nc3c2)CC1 [5-[(4-ethyl-1-piperazinyl)carbonyl]-2-(3-fluorophenyl)-1,3-benzoxazole] | 0.6541
5 | COCC1CCN(C(=O)c2ccc3oc(-c4ccc(C(F)(F)F)cc4)nc3c2)C1 (centres unmarked) [5-{[3-(methoxymethyl)-1-pyrrolidinyl]carbonyl}-2-[4-(trifluoromethyl)phenyl]-1,3-benzoxazole] | 0.1424
6 | COc1cccc(-c2nc3ccc(C(=O)N4CCS(=O)(=O)CC4)cc3o2)c1 [6-[(1,1-dioxidothiomorpholin-4-yl)carbonyl]-2-(3-methoxyphenyl)-1,3-benzoxazole] | 0.7081
7 | COc1cccc(-c2nc3ccc(C(=O)N4CCN(C5CCCC5)CC4)cc3o2)c1 [6-[(4-cyclopentyl-1-piperazinyl)carbonyl]-2-(3-methoxyphenyl)-1,3-benzoxazole] | 0.1582
8 | O=C(c1ccc2nc(-c3ccccc3)oc2c1)N1CCC12CCOC2 (centres unmarked) [6-{6-oxa-1-azaspiro[3.4]octane-1-carbonyl}-2-phenyl-1,3-benzoxazole] | 1.434
9 | O=C(c1ccc2oc(-c3cccc(F)c3)nc2c1)N1CCCCC1CO (centres unmarked) [(1-{[2-(3-fluorophenyl)-1,3-benzoxazol-5-yl]carbonyl}-2-piperidinyl)methanol] | 1.133
10 | O=C(c1ccc2oc(-c3ccc(C(F)(F)F)cc3)nc2c1)N1CC[C@H](O)C1 [(3S)-1-({2-[4-(trifluoromethyl)phenyl]-1,3-benzoxazol-5-yl}carbonyl)-3-pyrrolidinol] | 0.1382
11 | CCN1CCN(C(=O)c2ccc3nc(-c4cccc(OC)c4)oc3c2)[C@@H](C)C1=O [(3S)-1-ethyl-4-{[2-(3-methoxyphenyl)-1,3-benzoxazol-6-yl]carbonyl}-3-methyl-2-piperazinone] | 0.1434
12 | CCN(CC)C(=O)C1CCCN(C(=O)c2ccc3nc(-c4cccc(OC)c4)oc3c2)C1 (centres unmarked) [N,N-diethyl-1-{[2-(3-methoxyphenyl)-1,3-benzoxazol-6-yl]carbonyl}-3-piperidinecarboxamide] | 0.1463
13 | O=C(NC1C=CS(=O)(=O)C1)c1ccc2oc(-c3cccc(F)c3)nc2c1 (centres unmarked) [N-(1,1-dioxido-2,3-dihydro-3-thienyl)-2-(3-fluorophenyl)-1,3-benzoxazole-5-carboxamide] | 0.09701
14 | CN(CC(O)CO)C(=O)c1ccc2oc(-c3ccc(C(F)(F)F)cc3)nc2c1 (centres unmarked) [N-(2,3-dihydroxypropyl)-N-methyl-2-[4-(trifluoromethyl)phenyl]-1,3-benzoxazole-5-carboxamide] | 0.135
15 | O=C1CCC(NC(=O)c2ccc3nc(-c4ccccc4)oc3c2)C(=O)N1 (centres unmarked) [N-(2,6-dioxopiperidin-3-yl)-2-phenyl-1,3-benzoxazole-6-carboxamide] | 0.6989
16 | COc1cccc(-c2nc3ccc(C(=O)N(C)CC(O)c4ccccc4)cc3o2)c1 (centres unmarked) [N-(2-hydroxy-2-phenylethyl)-2-(3-methoxyphenyl)-N-methyl-1,3-benzoxazole-6-carboxamide] | 0.1589
17 | O=C(NCCO)c1ccc2oc(-c3ccc(C(F)(F)F)cc3)nc2c1 [N-(2-hydroxyethyl)-2-[4-(trifluoromethyl)phenyl]-1,3-benzoxazole-5-carboxamide] | 0.3843
18 | CC(C)N(CCO)C(=O)c1ccc2oc(-c3ccc(C(F)(F)F)cc3)nc2c1 [N-(2-hydroxyethyl)-N-isopropyl-2-[4-(trifluoromethyl)phenyl]-1,3-benzoxazole-5-carboxamide] | 0.1324
19 | CC(O)CNC(=O)c1ccc2oc(-c3ccc(C(F)(F)F)cc3)nc2c1 (centres unmarked) [N-(2-hydroxypropyl)-2-[4-(trifluoromethyl)phenyl]-1,3-benzoxazole-5-carboxamide] | 0.0922
20 | COc1cccc(-c2nc3ccc(C(=O)NCC(C)(C)CO)cc3o2)c1 [N-(3-hydroxy-2,2-dimethylpropyl)-2-(3-methoxyphenyl)-1,3-benzoxazole-6-carboxamide] | 0.6716
21 | O=C(NCCCO)c1ccc2oc(-c3ccc(C(F)(F)F)cc3)nc2c1 [N-(3-hydroxypropyl)-2-[4-(trifluoromethyl)phenyl]-1,3-benzoxazole-5-carboxamide] | 1.003
22 | CC1(C)CC(NC(=O)c2ccc3nc(-c4ccccc4)oc3c2)CO1 (centres unmarked) [N-(5,5-dimethyloxolan-3-yl)-2-phenyl-1,3-benzoxazole-6-carboxamide] | 0.09307
23 | COc1cccc(-c2nc3ccc(C(=O)N(CC4CC4)CC4CCCO4)cc3o2)c1 (centres unmarked) [N-(cyclopropylmethyl)-2-(3-methoxyphenyl)-N-(tetrahydro-2-furanylmethyl)-1,3-benzoxazole-6-carboxamide] | 0.1369

Same assay, conditions: relative to compound of Formula (III)

Row | SMILES | Caspase-3 induction, Normalized to Formula (III) (%)
24 | COc1cc(C(=O)NCC(C)C)cc(OC)c1O [4-hydroxy-3,5-dimethoxy-N-(2-methylpropyl)benzamide] | −25.2896
25 | COCCCNC(=O)c1cc(OC)c(O)c(OC)c1 [4-hydroxy-3,5-dimethoxy-N-(3-methoxypropyl)benzamide] | −23.5938
26 | COc1cc(C(=O)NCC2(C)CC2)cc(OC)c1O [4-hydroxy-3,5-dimethoxy-N-[(1-methylcyclopropyl)methyl]benzamide] | −0.598
27 | COc1cc(C(=O)NCC2CCOCC2)cc(OC)c1O [4-hydroxy-3,5-dimethoxy-N-[(oxan-4-yl)methyl]benzamide] | −78.7609
28 | COc1cc(C(=O)NCC2CCOCC2)ccc1O [4-hydroxy-3-methoxy-N-[(oxan-4-yl)methyl]benzamide] | −76.3077
29 | Cc1cc(O)c(O)cc1C(=O)N1CCCC1 [4-methyl-5-(pyrrolidine-1-carbonyl)benzene-1,2-diol] | −40.485
30 | O=C(c1ccc2nc(S)oc2c1)N1CCCC1 [6-(pyrrolidine-1-carbonyl)-1,3-benzoxazole-2-thiol] | −30.7254
31 | O=C(c1ccc2nc(C(F)(F)F)oc2c1)N1CCCC1 [6-(pyrrolidine-1-carbonyl)-2-(trifluoromethyl)-1,3-benzoxazole] | −71.4007
32 | O=C(c1cc2c(cc1O)OCO2)N1CCCC1 [6-(pyrrolidine-1-carbonyl)-2H-1,3-benzodioxol-5-ol] | −35.7785
33 | CC(C)CNC(=O)c1cc2c(cc1O)OCO2 [6-hydroxy-N-(2-methylpropyl)-2H-1,3-benzodioxole-5-carboxamide] | −31.2294
34 | COCCCNC(=O)c1cc2c(cc1O)OCO2 [6-hydroxy-N-(3-methoxypropyl)-2H-1,3-benzodioxole-5-carboxamide] | −41.8942
35 | CN(C)c1nc2c(C(=O)N3CCCC3)cccc2o1 [N,N-dimethyl-4-(pyrrolidine-1-carbonyl)-1,3-benzoxazol-2-amine] | −22.9856
36 | CN(C)c1nc2cccc(C(=O)N3CCCC3)c2o1 [N,N-dimethyl-7-(pyrrolidine-1-carbonyl)-1,3-benzoxazol-2-amine] | −21.0312
37 | COCCCNC(=O)c1ccc2nc(C(F)(F)C(F)(F)F)oc2c1 [N-(3-methoxypropyl)-2-(1,1,2,2,2-pentafluoroethyl)-1,3-benzoxazole-6-carboxamide] | −23.2124
38 | COCCCNC(=O)c1ccc2nc(C3CCCO3)oc2c1 (centres unmarked) [N-(3-methoxypropyl)-2-(oxolan-2-yl)-1,3-benzoxazole-6-carboxamide] | −69.878
39 | COCCCNC(=O)c1cccc2oc(C)nc12 [N-(3-methoxypropyl)-2-methyl-1,3-benzoxazole-4-carboxamide] | −70.4086
40 | COCCCNC(=O)c1ccc2nc(S)oc2c1 [N-(3-methoxypropyl)-2-sulfanyl-1,3-benzoxazole-6-carboxamide] | 15.2459
41 | COc1cc(C(=O)NCC2CCCC2)ccc1OCCC(C)C [N-(cyclopentylmethyl)-3-methoxy-4-(3-methylbutoxy)benzamide] | −50.1028

Source: patent US20230255906A1, “Targeting Serpin B9 in Cancer” (The Brigham and Women`s Hospital, Inc., priority 2020, published 2023)
